Values after ≈ are worked out from the molar mass of the structure shown. Active and inactive are the calls of the source. The rule behind the calls is not given here.
Experiments:
[1] = organism: Bos taurus; assay: Binding affinity to calf thymus DNA assessed as induction of hyperchromic shift at 20 uM sonicated for 35 to 40 mins by UV-vis spectrophotometric analysis
[2] = tested on: SN12C; assay: Growth inhibition of human SN12C cells assessed as cell growth at 0.01 uM incubated for 48 hrs by sulforhodamine B assay relative to control; type: functional; conditions: read-out: Activity
[3] = tested on: SK-MEL-2; assay: Growth inhibition of human SK-MEL-2 cells assessed as cell growth at 0.01 uM incubated for 48 hrs by sulforhodamine B assay relative to control; type: functional; conditions: SK-MEL-2, 48 h, read-out: Activity
[4] = biological target: T1, Albumin (Bos taurus, UniProt P02769); assay: Binding affinity to Bovine serum albumin assessed as fluorescence quenching at […] by fluorescence spectroscopic assay; type: ADME; conditions: cattle, isolated protein
T1 sequence (P02769 whole entry): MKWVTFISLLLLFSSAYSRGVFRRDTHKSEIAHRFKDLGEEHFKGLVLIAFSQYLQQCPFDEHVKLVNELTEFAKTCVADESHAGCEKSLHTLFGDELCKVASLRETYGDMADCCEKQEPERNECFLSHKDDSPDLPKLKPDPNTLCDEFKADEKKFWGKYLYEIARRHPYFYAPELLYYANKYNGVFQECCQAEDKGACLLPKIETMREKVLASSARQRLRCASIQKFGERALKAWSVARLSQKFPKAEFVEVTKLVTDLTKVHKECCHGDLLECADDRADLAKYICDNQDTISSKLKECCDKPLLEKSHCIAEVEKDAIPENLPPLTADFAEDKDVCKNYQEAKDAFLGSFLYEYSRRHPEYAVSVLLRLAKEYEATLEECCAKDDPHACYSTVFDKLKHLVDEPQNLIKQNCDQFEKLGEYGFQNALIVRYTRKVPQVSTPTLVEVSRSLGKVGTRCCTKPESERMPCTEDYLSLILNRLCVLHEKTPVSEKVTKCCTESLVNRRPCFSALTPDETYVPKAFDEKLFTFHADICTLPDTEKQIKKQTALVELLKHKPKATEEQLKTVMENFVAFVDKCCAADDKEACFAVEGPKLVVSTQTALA

[5] = tested on: HT-29; assay: Growth inhibition of human HT-29 cells assessed as cell growth at 0.01 uM incubated for 48 hrs by sulforhodamine B assay relative to control; type: functional; conditions: HT-29, 48 h, read-out: Activity
[6] = tested on: MCF7; assay: Cytotoxicity against human MCF7 cells assessed as cell viability after 72 hrs by MTT assay; type: functional, cell-based; conditions: MCF7, 72 h
[7] = tested on: HepG2; assay: Cytotoxicity against human HepG2 cells assessed as cell viability after 72 hrs by MTT assay; type: functional, cell-based; conditions: HepG2, 72 h
[8] = tested on: UO-31; assay: Growth inhibition of human UO31 cells incubated for 48 hrs by sulforhodamine B assay; type: functional; conditions: UO-31, 48 h
[9] = tested on: OVCAR-3; assay: Growth inhibition of human OVCAR3 cells assessed as cell growth at 0.1 uM incubated for 48 hrs by sulforhodamine B assay relative to control; type: functional; conditions: OVCAR-3, 48 h, read-out: Activity
[10] = tested on: TK-10; assay: Growth inhibition of human TK10 cells incubated for 48 hrs by sulforhodamine B assay; type: functional; conditions: TK-10, 48 h
[11] = tested on: UO-31; assay: Growth inhibition of human UO31 cells assessed as cell growth at 0.1 uM incubated for 48 hrs by sulforhodamine B assay relative to control; type: functional; conditions: UO-31, 48 h, read-out: Activity
[12] = tested on: SR; assay: Growth inhibition of human SR cells incubated for 48 hrs by sulforhodamine B assay; type: functional
[13] = tested on: NCI-H460; assay: Growth inhibition of human NCI-H460 cells assessed as cell growth at 1 uM incubated for 48 hrs by sulforhodamine B assay relative to control; type: functional; conditions: NCI-H460, 48 h, read-out: Activity
[14] = tested on: MDA-MB-231; assay: Growth inhibition of human MDA-MB-231 cells assessed as cell growth at 100 uM incubated for 48 hrs by sulforhodamine B assay relative to control; type: functional; conditions: MDA-MB-231, 48 h, read-out: Activity
[15] = tested on: IGROV-1; assay: Growth inhibition of human IGROV1 cells incubated for 48 hrs by sulforhodamine B assay; type: functional; conditions: IGROV-1, 48 h
[16] = tested on: SN12C; assay: Growth inhibition of human SN12C cells assessed as cell growth at 0.1 uM incubated for 48 hrs by sulforhodamine B assay relative to control; type: functional; conditions: read-out: Activity
[17] = tested on: LNCaP; assay: Cytotoxicity against human LNCAP cells assessed as cell viability after 72 hrs by MTT assay; type: functional, cell-based
[18] = tested on: HCC 2998; assay: Growth inhibition of human HCC2998 cells assessed as cell growth at 0.1 uM incubated for 48 hrs by sulforhodamine B assay relative to control; type: functional; conditions: HCC 2998, 48 h, read-out: Activity
[19] = tested on: SF-539; assay: Growth inhibition of human SF539 cells assessed as cell growth at 0.01 uM incubated for 48 hrs by sulforhodamine B assay relative to control; type: functional; conditions: SF-539, 48 h, read-out: Activity
[20] = tested on: RXF 393; assay: Growth inhibition of human RXF393 cells assessed as cell growth at 1 uM incubated for 48 hrs by sulforhodamine B assay relative to control; type: functional; conditions: RXF 393, 48 h, read-out: Activity
[21] = tested on: SN12C; assay: Growth inhibition of human SN12C cells assessed as cell growth at 1 uM incubated for 48 hrs by sulforhodamine B assay relative to control; type: functional; conditions: read-out: Activity
[22] = tested on: T47D; assay: Growth inhibition of human T47D cells assessed as cell growth at 1 uM incubated for 48 hrs by sulforhodamine B assay relative to control; type: functional; conditions: read-out: Activity
[23] = tested on: SN12C; assay: Growth inhibition of human SN12C cells incubated for 48 hrs by sulforhodamine B assay; type: functional
[24] = tested on: SN12C; assay: Growth inhibition of human SN12C cells assessed as cell growth at 100 uM incubated for 48 hrs by sulforhodamine B assay relative to control; type: functional; conditions: read-out: Activity
[25] = tested on: HOP-92; assay: Growth inhibition of human HOP92 cells assessed as cell growth at 100 uM incubated for 48 hrs by sulforhodamine B assay relative to control; type: functional; conditions: HOP-92, 48 h, read-out: Activity
[26] = tested on: NCI/ADR-RES; assay: Growth inhibition of human NCI-ADR-RES cells assessed as cell growth at 0.01 uM incubated for 48 hrs by sulforhodamine B assay relative to control; type: functional; conditions: read-out: Activity
[27] = tested on: OVCAR-8; assay: Growth inhibition of human OVCAR8 cells assessed as cell growth at 100 uM incubated for 48 hrs by sulforhodamine B assay relative to control; type: functional; conditions: OVCAR-8, 48 h, read-out: Activity
[28] = tested on: OVCAR-8; assay: Growth inhibition of human OVCAR8 cells assessed as cell growth at 1 uM incubated for 48 hrs by sulforhodamine B assay relative to control; type: functional; conditions: OVCAR-8, 48 h, read-out: Activity
[29] = biological target: T1, Albumin; assay: Binding affinity to Bovine serum albumin assessed as fluorescence quenching at 0.1 to 1 uM at […] by fluorescence spectroscopic assay; type: ADME; conditions: cattle, isolated protein
[30] = tested on: OVCAR-8; assay: Growth inhibition of human OVCAR8 cells assessed as cell growth at 0.1 uM incubated for 48 hrs by sulforhodamine B assay relative to control; type: functional; conditions: OVCAR-8, 48 h, read-out: Activity
[31] = tested on: OVCAR-8; assay: Growth inhibition of human OVCAR8 cells incubated for 48 hrs by sulforhodamine B assay; type: functional; conditions: OVCAR-8, 48 h
[32] = read-out: LC50 (the source's name)
[33] = read-out: pLC50 (the source's name) (converted)

With `c1ccc2c3c([nH]c2c1)C(c1ccc(C2NCCc4c2[nH]c2ccccc42)cc1)NCC3` (racemic) the Activity [1] was “Active”, the growth at 0.01 µM [2] was 96% and the growth at 0.01 µM [3] was 100%. The Activity [4] was “Dose-dependent effect”, the growth at 0.01 µM [5] was 104% and the IC50 [6] was 3.34 µg/mL (≈ 7.98 µM). For the same compound, the IC50 [7] was 4.43 µg/mL (≈ 10.6 µM), the GI50 ([8]; read-out: GI50) was 1.04 µM and the CC50 [8, 32] was 4.92 µM. The TGI ([8]; read-out: TGI) was 2.26 µM, the GI50 ([8]; read-out: pGI50 (converted)) was 1.05 µM and the CC50 [8, 33] was 4.9 µM. For the same compound, the TGI ([8]; read-out: pTGI (converted)) was 2.24 µM, the growth at 0.1 µM [9] was 96% and the GI50 ([10]; read-out: GI50) was 1.98 µM. For the same compound, the CC50 [10, 32] was 8.44 µM, the TGI ([10]; read-out: TGI) was 4.09 µM and the GI50 ([10]; read-out: pGI50 (converted)) was 2 µM. The CC50 [10, 33] was 8.51 µM, the TGI ([10]; read-out: pTGI (converted)) was 4.07 µM and the growth at 0.1 µM [11] was 74%. For the same compound, the GI50 ([12]; read-out: GI50) was 2.47 µM, the CC50 [12, 32] was 4.51 µM and the TGI ([12]; read-out: TGI) was 5.56 µM. The GI50 ([12]; read-out: pGI50 (converted)) was 0.245 µM, the CC50 [12, 33] was 4.47 µM and the TGI ([12]; read-out: pTGI (converted)) was 0.55 µM. The growth at 1 µM [13] was 56%, the growth at 100 µM [14] was -92% and the GI50 ([15]; read-out: GI50) was 1.34 µM. For the same compound, the CC50 [15, 32] was 5.99 µM, the TGI ([15]; read-out: TGI) was 2.85 µM and the GI50 ([15]; read-out: pGI50 (converted)) was 1.35 µM. For the same compound, the CC50 [15, 33] was 6.03 µM, the TGI ([15]; read-out: pTGI (converted)) was 2.82 µM and the growth at 0.1 µM [16] was 95%. The IC50 [17] was 5.52 µg/mL (≈ 13.2 µM), the growth at 0.1 µM [18] was 81% and the growth at 0.01 µM [19] was 93%. For the same compound, the growth at 1 µM [20] was 69%, the growth at 1 µM [21] was 77% and the growth at 1 µM [22] was 66%. The GI50 ([23]; read-out: GI50) was 1.47 µM, the CC50 [23, 32] was 6.31 µM and the TGI ([23]; read-out: TGI) was 3.05 µM. The GI50 ([23]; read-out: pGI50 (converted)) was 1.48 µM, the CC50 [23, 33] was 6.31 µM and the TGI ([23]; read-out: pTGI (converted)) was 3.02 µM. For the same compound, the growth at 100 µM [24] was -93% and the growth at 100 µM [25] was 90%.

In the case of `c1ccc2[nH]c(-c3ccc(-c4nccc5c4[nH]c4ccccc45)cc3)nc2c1`, the Activity [1] is reported as “Active”, the growth at 0.01 µM [3] is reported as 95% and the growth at 0.01 µM [26] is reported as 99%. It also gave a growth at 0.01 µM [5] of 100%, a growth at 100 µM [27] of 28% and a GI50 ([8]; read-out: GI50) of 1.69 µM. It also gave a CC50 [8, 32] of 6.32 µM, a TGI ([8]; read-out: TGI) of 3.27 µM and a GI50 ([8]; read-out: pGI50 (converted)) of 1.7 µM. The CC50 [8, 33] was 6.31 µM, the TGI ([8]; read-out: pTGI (converted)) was 3.24 µM and the growth at 0.1 µM [9] was 103%. For the same compound, the GI50 ([10]; read-out: GI50) was 2.07 µM, the CC50 [10, 32] was 1.08 µM and the TGI ([10]; read-out: TGI) was 4.59 µM. It also gave a GI50 ([10]; read-out: pGI50 (converted)) of 2.09 µM, a CC50 [10, 33] of 10.7 µM and a TGI ([10]; read-out: pTGI (converted)) of 4.57 µM. For the same compound, the growth at 1 µM [28] was 99%, the growth at 0.1 µM [11] was 91% and the GI50 ([12]; read-out: GI50) was 2.21 µM. The CC50 [12, 32] was > 1 µM, the TGI ([12]; read-out: TGI) was 6.36 µM and the GI50 ([12]; read-out: pGI50 (converted)) was 2.19 µM. For the same compound, the CC50 [12, 33] was > 100 µM, the TGI ([12]; read-out: pTGI (converted)) was 6.31 µM and the growth at 1 µM [13] was 97%. The Activity [29] was “Active”, the growth at 100 µM [14] was 54% and the GI50 ([15]; read-out: GI50) was 4.73 µM. The CC50 [15, 32] was > 1 µM, the GI50 ([15]; read-out: pGI50 (converted)) was 4.68 µM and the CC50 [15, 33] was > 100 µM. It also gave a TGI ([15]; read-out: pTGI (converted)) of 22.4 µM, a growth at 0.1 µM [18] of 95% and a growth at 0.01 µM [19] of 96%. The growth at 1 µM [20] was 104%, the growth at 1 µM [22] was 82% and the growth at 0.1 µM [30] was 103%. For the same compound, the GI50 [31] was 3.31 µM, the CC50 [31, 32] was > 1 µM and the CC50 ([31]; read-out: pLC50 (converted)) was > 100 µM. For the same compound, the TGI ([31]; read-out: pTGI (converted)) was 13.5 µM and the growth at 100 µM [25] was 76%.
